According to the supplement of paper PMC10307832:

Assays:
Experiment in all cases: relative viability (nuclei count vs DMSO), 5 days (fraction); higher = more cells survive
LCLC-103H = test system: LCLC-103H
Outline: (§1)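 Relative viability was taken as the ratio of nuclei in treated wells to nuclei in vehicle wells. Lung cancer cell lines in 1536-well plates received compounds by pin tool one day after seeding, either one drug alone or a fixed anchor-drug dose plus five library-drug doses (not always all listed) in √10 steps. Nuclei were counted on 4× images after 5 days of treatment, and values are medians of duplicate plates.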

LXF-289 = test system: LXF-289
Outline: as §1

NCI-H1355 = test system: NCI-H1355
Outline: as §1

NCI-H1563 = test system: NCI-H1563
Outline: as §1

NCI-H1651 = test system: NCI-H1651
Outline: as §1

NCI-H1755 = test system: NCI-H1755
Outline: as §1

NCI-H1792 = test system: NCI-H1792
Outline: as §1

NCI-H1915 = test system: NCI-H1915
Outline: as §1

NCI-H2347 = test system: NCI-H2347
Outline: as §1

NCI-H3122 = test system: NCI-H3122
Outline: as §1

NCI-H322M = test system: NCI-H322M
Outline: as §1

NCI-H441 = test system: NCI-H441
Outline: as §1

NCI-H460 = test system: NCI-H460
Outline: as §1

NCI-H520 = test system: NCI-H520
Outline: as §1

NCI-H596 = test system: NCI-H596
Outline: as §1

NCI-H661 = test system: NCI-H661
Outline: as §1

NCI-H727 = test system: NCI-H727
Outline: as §1

PC-14 = test system: PC-14
Outline: as §1

RERF-LC-KJ = test system: RERF-LC-KJ
Outline: as §1

SK-MES-1 = test system: SK-MES-1
Outline: as §1

SMILES: Nc1ccn([C@@H]2O[C@H](CO)[C@@H](O)[C@@H]2O)c(=O)n1 [Cytarabine] + C[C@]1(O)C[C@@H](c2nc(-c3ccc4ccc(-c5ccccc5)nc4c3)c3c(N)nccn32)C1 [Linsitinib] (partner 1 µM)
- relative viability (LCLC-103H; first compound 0.005 µM): 0.976
- relative viability (LCLC-103H; first compound 0.01581 µM): 1.22
- relative viability (LCLC-103H; first compound 0.05 µM): 1.12
- relative viability (LCLC-103H; first compound 0.1581 µM): 1.09
- relative viability (LCLC-103H; first compound 0.5 µM): 1.18
- relative viability (LXF-289; first compound 0.005 µM): 0.859
- relative viability (LXF-289; first compound 0.01581 µM): 0.945
- relative viability (LXF-289; first compound 0.05 µM): 0.786
- relative viability (LXF-289; first compound 0.1581 µM): 0.493
- relative viability (LXF-289; first compound 0.5 µM): 0.279
- relative viability (NCI-H1355; first compound 0.005 µM): 0.788
- relative viability (NCI-H1355; first compound 0.01581 µM): 0.8
- relative viability (NCI-H1355; first compound 0.05 µM): 0.627
- relative viability (NCI-H1355; first compound 0.1581 µM): 0.451
- relative viability (NCI-H1355; first compound 0.5 µM): 0.32
- relative viability (NCI-H1563; first compound 0.005 µM): 1.14
- relative viability (NCI-H1563; first compound 0.01581 µM): 1.3
- relative viability (NCI-H1563; first compound 0.05 µM): 1.04
- relative viability (NCI-H1563; first compound 0.1581 µM): 1
- relative viability (NCI-H1563; first compound 0.5 µM): 0.769
- relative viability (NCI-H1651; first compound 0.005 µM): 0.916
- relative viability (NCI-H1651; first compound 0.01581 µM): 0.98
- relative viability (NCI-H1651; first compound 0.05 µM): 1.11
- relative viability (NCI-H1651; first compound 0.1581 µM): 0.468
- relative viability (NCI-H1651; first compound 0.5 µM): 0.327
- relative viability (NCI-H1755; first compound 0.005 µM): 0.936
- relative viability (NCI-H1755; first compound 0.01581 µM): 0.873
- relative viability (NCI-H1755; first compound 0.05 µM): 0.858
- relative viability (NCI-H1755; first compound 0.1581 µM): 0.31
- relative viability (NCI-H1755; first compound 0.5 µM): 0.271
- relative viability (NCI-H1792; first compound 0.005 µM): 0.46
- relative viability (NCI-H1792; first compound 0.01581 µM): 0.492
- relative viability (NCI-H1792; first compound 0.05 µM): 0.34
- relative viability (NCI-H1792; first compound 0.1581 µM): 0.348
- relative viability (NCI-H1792; first compound 0.5 µM): 0.283
- relative viability (NCI-H1915; first compound 0.005 µM): 1.1
- relative viability (NCI-H1915; first compound 0.01581 µM): 0.979
- relative viability (NCI-H1915; first compound 0.05 µM): 0.842
- relative viability (NCI-H1915; first compound 0.1581 µM): 0.54
- relative viability (NCI-H1915; first compound 0.5 µM): 0.388
- relative viability (NCI-H2347; first compound 0.005 µM): 1.02
- relative viability (NCI-H2347; first compound 0.01581 µM): 0.932
- relative viability (NCI-H2347; first compound 0.05 µM): 0.822
- relative viability (NCI-H2347; first compound 0.1581 µM): 0.32
- relative viability (NCI-H2347; first compound 0.5 µM): 0.649
- relative viability (NCI-H3122; first compound 0.005 µM): 0.995
- relative viability (NCI-H3122; first compound 0.01581 µM): 0.893
- relative viability (NCI-H3122; first compound 0.05 µM): 0.948
- relative viability (NCI-H3122; first compound 0.1581 µM): 0.72
- relative viability (NCI-H3122; first compound 0.5 µM): 0.476
- relative viability (NCI-H322M; first compound 0.005 µM): 0.822
- relative viability (NCI-H322M; first compound 0.01581 µM): 0.707
- relative viability (NCI-H322M; first compound 0.05 µM): 0.628
- relative viability (NCI-H322M; first compound 0.1581 µM): 0.464
- relative viability (NCI-H322M; first compound 0.5 µM): 0.43
- relative viability (NCI-H441; first compound 0.005 µM): 0.467
- relative viability (NCI-H441; first compound 0.01581 µM): 0.476
- relative viability (NCI-H441; first compound 0.05 µM): 0.406
- relative viability (NCI-H441; first compound 0.1581 µM): 0.232
- relative viability (NCI-H441; first compound 0.5 µM): 0.122
- relative viability (NCI-H460; first compound 0.005 µM): 0.509
- relative viability (NCI-H460; first compound 0.01581 µM): 0.514
- relative viability (NCI-H460; first compound 0.05 µM): 0.231
- relative viability (NCI-H460; first compound 0.1581 µM): 0.0385
- relative viability (NCI-H460; first compound 0.5 µM): 0.0239
- relative viability (NCI-H520; first compound 0.005 µM): 0.556
- relative viability (NCI-H520; first compound 0.01581 µM): 1.09
- relative viability (NCI-H520; first compound 0.05 µM): 0.952
- relative viability (NCI-H520; first compound 0.1581 µM): 0.751
- relative viability (NCI-H520; first compound 0.5 µM): 0.752
- relative viability (NCI-H596; first compound 0.005 µM): 1.03
- relative viability (NCI-H596; first compound 0.01581 µM): 0.857
- relative viability (NCI-H596; first compound 0.05 µM): 0.763
- relative viability (NCI-H596; first compound 0.1581 µM): 0.658
- relative viability (NCI-H596; first compound 0.5 µM): 0.628
- relative viability (NCI-H661; first compound 0.005 µM): 0.624
- relative viability (NCI-H661; first compound 0.01581 µM): 0.529
- relative viability (NCI-H661; first compound 0.05 µM): 0.445
- relative viability (NCI-H661; first compound 0.1581 µM): 0.286
- relative viability (NCI-H661; first compound 0.5 µM): 0.21
- relative viability (NCI-H727; first compound 0.005 µM): 0.251
- relative viability (NCI-H727; first compound 0.01581 µM): 0.254
- relative viability (NCI-H727; first compound 0.05 µM): 0.318
- relative viability (NCI-H727; first compound 0.1581 µM): 0.19
- relative viability (NCI-H727; first compound 0.5 µM): 0.215
- relative viability (PC-14; first compound 0.005 µM): 0.967
- relative viability (PC-14; first compound 0.01581 µM): 0.862
- relative viability (PC-14; first compound 0.05 µM): 0.761
- relative viability (PC-14; first compound 0.1581 µM): 0.436
- relative viability (PC-14; first compound 0.5 µM): 0.464
- relative viability (RERF-LC-KJ; first compound 0.005 µM): 0.771
- relative viability (RERF-LC-KJ; first compound 0.01581 µM): 0.787
- relative viability (RERF-LC-KJ; first compound 0.05 µM): 0.757
- relative viability (RERF-LC-KJ; first compound 0.1581 µM): 0.474
- relative viability (RERF-LC-KJ; first compound 0.5 µM): 0.458
- relative viability (SK-MES-1; first compound 0.005 µM): 0.905
- relative viability (SK-MES-1; first compound 0.01581 µM): 0.82
- relative viability (SK-MES-1; first compound 0.05 µM): 0.368
- relative viability (SK-MES-1; first compound 0.1581 µM): 0.252
- relative viability (SK-MES-1; first compound 0.5 µM): 0.255
